Results published in patent publication EP0333005A1, “Light-sensitive dialkoxybenzenediazonium compound, method for its preparation and its use” (priority 1988, dated 1989).

Test: Solubility in isopropanol/formic acid
Assay type: physicochemical
Details: Isopropanol/Ameisensäure (9:1), 20 °C
Description: So beträgt die Löslichkeit in der Form des 2,5-Diethoxy-4-thio(4′-methylphenyl)benzoldiazonium-sulfoisophthalats in Isopropanol/Ameisensäure (9:1) bei 20 °C 7,3 g/l, wogegen die entsprechende erfindungsgemäße Verbindung der Formel I sich zu 12,6 g/l bei 20 °C löst. Bei den bekannten Sulfoisophtalaten müssen daher zur besseren Lösung Löslichkeit verleihende Verbindungen zugesetzt werden.

Row | SMILES | Löslichkeit (listed as entsprechende erfindungsgemäße Verbindung der Formel I) | Löslichkeit
1 | CCOc1cc(Sc2ccc(C)cc2)c(OCC)cc1[N+]#N [Beispiel 1, 2,5-Diethoxy-4-thio(4′-methylphenyl)benzoldiazonium-sulfosalicylat] | 12,6 g/l | 
2 | CCOc1cc(Sc2ccc(C)cc2)c(OCC)cc1[N+]#N [2,5-Diethoxy-4-thio(4′-methylphenyl)benzoldiazonium-sulfoisophthalat, reference compound] |  | 7,3 g/l
